Experimental data published in BindingDB's records for doi:10.1016/j.bmcl.2010.06.050 (Universit&#224, 2010).

What was measured:
[1] = target: Monoglyceride lipase MGLL (Mus musculus) (UniProt O35678); experiment: Inhibition of mouse brain MAGL
[2] = target: T1, Fatty-acid amide hydrolase 1 (Mus musculus, UniProt O08914); experiment: Inhibition of mouse brain FAAH assessed as conversion of [3H-ethanolamine]AEA to [3H]ethanolamine by scintillation counting
T1 sequence (O08914 whole entry): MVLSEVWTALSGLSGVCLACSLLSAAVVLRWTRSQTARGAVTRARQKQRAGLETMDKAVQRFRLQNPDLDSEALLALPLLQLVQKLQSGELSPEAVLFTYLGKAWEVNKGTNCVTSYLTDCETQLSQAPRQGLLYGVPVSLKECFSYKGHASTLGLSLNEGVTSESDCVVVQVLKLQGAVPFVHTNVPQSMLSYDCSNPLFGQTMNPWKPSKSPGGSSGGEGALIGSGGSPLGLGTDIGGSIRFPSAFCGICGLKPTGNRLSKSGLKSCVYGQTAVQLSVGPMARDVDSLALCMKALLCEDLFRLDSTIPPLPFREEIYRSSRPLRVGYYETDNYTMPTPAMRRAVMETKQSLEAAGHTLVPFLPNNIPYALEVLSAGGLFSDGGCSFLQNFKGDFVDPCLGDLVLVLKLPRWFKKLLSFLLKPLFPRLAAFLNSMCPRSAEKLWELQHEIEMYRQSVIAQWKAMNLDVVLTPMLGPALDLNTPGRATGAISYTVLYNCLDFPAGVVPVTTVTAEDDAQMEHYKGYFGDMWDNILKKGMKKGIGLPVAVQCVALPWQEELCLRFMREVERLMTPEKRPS

Chain of Monoglyceride lipase MGLL (Mus musculus) (O35678 whole entry, looked up): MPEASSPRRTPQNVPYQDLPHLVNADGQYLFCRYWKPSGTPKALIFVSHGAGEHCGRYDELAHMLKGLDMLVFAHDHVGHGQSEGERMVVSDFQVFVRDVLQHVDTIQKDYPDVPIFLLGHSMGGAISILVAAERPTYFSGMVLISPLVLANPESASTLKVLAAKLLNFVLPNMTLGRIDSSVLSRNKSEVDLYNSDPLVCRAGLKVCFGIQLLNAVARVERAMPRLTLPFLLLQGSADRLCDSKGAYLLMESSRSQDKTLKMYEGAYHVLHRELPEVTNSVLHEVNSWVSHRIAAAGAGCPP

IC50 [1] [µM] | IC50 [2] [µM] | Structure (SMILES)
> 10 |  | CC(=NOC(=O)Nc1ccccc1)c1cccc(-c2cccs2)c1 [1-(3-Thiophen-2-yl-phenyl)-ethanone, O-(phenylaminocarbonyl)oxime]
 | > 50 | O=C(Nc1ccccc1)ON=C1CCC(c2ccccc2)CC1 (configuration not stated) [4-Phenyl-cyclohexanone, O-(phenylaminocarbonyl)oxime]
